Experimental data reported in US20240374520A1, “PROTEOLIPID VESICLES FORMULATED WITH FUSION ASSOCIATED SMALL TRANSMEMBRANE PROTEINS” (priority 2020, published 2024).

Tested on: WI-38 cells
Format: cell-based, human
Details: Alamar Blue, 72 hours after addition to WI-38 cells
Procedure: Conventional LNPs rely on endosomal escape for intracellular delivery, which results in limited nucleic acid release into the cytosol and is one of the major limitations of LNPs formulated for gene therapy (13, 20, 41). […] These lipids were utilized in a PLV formulation to promote nucleic acid encapsulation through charge neutralization. The optimal molar ratio of DODAP to pDNA was assessed by measuring the delivery and subsequent expression of DNA-encoded firefly luciferase (pDNA-FLuc) in retinal pigmented epithelial (ARPE-19) cells.
Cell cultures in a 96 well plates were treated with test compounds at indicated concentrations. After 24-96 hours, a 1/10 volume of Alamar blue solution (440 μM Resazurin; Sigma R7017 5GM) was added to the cells in culture medium and incubated for 2-4 hours at 37° C. 5% CO2. The Omega Fluostar (BMG LabTech) plate reader was used to measure the fluorescence (excitation wavelength of 540 nm and emission at 590 nm) of the treated cells. Cell viability was calculated using the following formula: […]

Compound | tolerability / toxicity of cationic and ionizable lipids
CCCCCCCC/C=C\CCCCCCCC(=O)OCC(CN(C)C)OC(=O)CCCCCCC/C=C\CCCCCCCC (centres unmarked) [DODAP, 1,2-dioleoyl-3-dimethylammonium-propane] | most favorable tolerability
CCCCCCCC/C=C\CCCCCCCC(=O)OCC(C[N+](C)(C)C)OC(=O)CCCCCCC/C=C\CCCCCCCC (centres unmarked) [DOTAP, 1,2-dioleoyl-3-trimethylammonium-propane] | slightly higher toxicity
